Data: patent US20200239530A1, “COMPOUNDS AND METHODS OF MODULATING PROTEIN DEGRADATION” (Vividion Therapeutics, Inc., priority 2017, published 2020)

What was measured:
Assay in all cases: Cysteine liganding, probe competition
Assay type in all cases: binding
[1] = target: T1, BIRC2 Baculoviral IAP repeat-containing protein 2 (Homo sapiens, UniProt Q13490); settings: for Liganded: BIRC2 Res# 45, uniprot Q13490
T1 construct: Cells were resuspended in cold PBS on ice and sonicated with a probe sonicator to achieve lysis; endogenous in cells
Summary of the method: (§1)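 Lysates from probe-sonicated cells in PBS (5 mg/ml proteome) were exposed to compound for 1 hr at 25° C, then labelled with desthiobiotin iodoacetamide probe (10 mM stock) for 1 hr at 25° C. Probe-tagged peptides were streptavidin-enriched after trypsin digestion.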

[2] = target: T2, ZNF318 Zinc finger protein 318 (Homo sapiens, UniProt Q5VUA4)
T2 construct: Cells were resuspended in cold PBS on ice and sonicated with a probe sonicator to achieve lysis; endogenous in cells
Summary of the method: as §1

[3] = target: T3, HERC1 Probable E3 ubiquitin-protein ligase HERC1 (Homo sapiens, UniProt Q15751)
T3 construct: Cells were resuspended in cold PBS on ice and sonicated with a probe sonicator to achieve lysis; endogenous in cells
Summary of the method: as §1

[4] = target: T4, MAPK10 Mitogen-activated protein kinase 10 (Homo sapiens, UniProt P53779); settings: for 100 Max / 100 ave / 500 ave / 500 Max: uniprot P53779; for 500 Max: in % (unit assumed)
T4 construct: Cells were resuspended in cold PBS on ice and sonicated with a probe sonicator to achieve lysis; endogenous in cells
Summary of the method: as §1

[5] = target: T5, NEK9 Serine/threonine-protein kinase Nek9 (Homo sapiens, UniProt Q8TD19)
T5 construct: Cells were resuspended in cold PBS on ice and sonicated with a probe sonicator to achieve lysis; endogenous in cells
T5 sequence (Q8TD19 1-979): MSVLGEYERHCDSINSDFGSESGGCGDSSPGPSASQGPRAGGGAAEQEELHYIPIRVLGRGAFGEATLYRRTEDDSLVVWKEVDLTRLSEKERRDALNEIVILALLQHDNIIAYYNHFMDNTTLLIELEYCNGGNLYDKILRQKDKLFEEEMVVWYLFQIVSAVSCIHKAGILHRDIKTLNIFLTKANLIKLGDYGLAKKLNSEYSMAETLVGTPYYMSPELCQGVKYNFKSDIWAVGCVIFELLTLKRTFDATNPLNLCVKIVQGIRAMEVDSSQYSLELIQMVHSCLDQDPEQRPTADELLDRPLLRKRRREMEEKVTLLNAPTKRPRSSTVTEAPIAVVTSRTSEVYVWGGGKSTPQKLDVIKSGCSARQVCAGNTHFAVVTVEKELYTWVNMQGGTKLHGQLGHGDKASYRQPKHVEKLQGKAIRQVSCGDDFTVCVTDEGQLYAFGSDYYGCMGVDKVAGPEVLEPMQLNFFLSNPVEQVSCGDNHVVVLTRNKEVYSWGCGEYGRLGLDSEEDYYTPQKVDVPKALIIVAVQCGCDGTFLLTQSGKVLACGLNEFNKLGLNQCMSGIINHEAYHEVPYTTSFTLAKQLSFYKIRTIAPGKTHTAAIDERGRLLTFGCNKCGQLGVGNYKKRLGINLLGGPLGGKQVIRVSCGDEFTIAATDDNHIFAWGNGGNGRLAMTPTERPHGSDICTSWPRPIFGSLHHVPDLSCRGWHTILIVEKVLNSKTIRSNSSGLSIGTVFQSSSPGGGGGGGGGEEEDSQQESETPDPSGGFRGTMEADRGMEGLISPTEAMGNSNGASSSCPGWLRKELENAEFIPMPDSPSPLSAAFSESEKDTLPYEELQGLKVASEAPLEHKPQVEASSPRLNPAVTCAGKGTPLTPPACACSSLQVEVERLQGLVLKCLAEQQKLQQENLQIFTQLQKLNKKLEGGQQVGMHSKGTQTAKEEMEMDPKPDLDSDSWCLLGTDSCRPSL
Summary of the method: as §1

T2 sequence (Q5VUA4 whole entry): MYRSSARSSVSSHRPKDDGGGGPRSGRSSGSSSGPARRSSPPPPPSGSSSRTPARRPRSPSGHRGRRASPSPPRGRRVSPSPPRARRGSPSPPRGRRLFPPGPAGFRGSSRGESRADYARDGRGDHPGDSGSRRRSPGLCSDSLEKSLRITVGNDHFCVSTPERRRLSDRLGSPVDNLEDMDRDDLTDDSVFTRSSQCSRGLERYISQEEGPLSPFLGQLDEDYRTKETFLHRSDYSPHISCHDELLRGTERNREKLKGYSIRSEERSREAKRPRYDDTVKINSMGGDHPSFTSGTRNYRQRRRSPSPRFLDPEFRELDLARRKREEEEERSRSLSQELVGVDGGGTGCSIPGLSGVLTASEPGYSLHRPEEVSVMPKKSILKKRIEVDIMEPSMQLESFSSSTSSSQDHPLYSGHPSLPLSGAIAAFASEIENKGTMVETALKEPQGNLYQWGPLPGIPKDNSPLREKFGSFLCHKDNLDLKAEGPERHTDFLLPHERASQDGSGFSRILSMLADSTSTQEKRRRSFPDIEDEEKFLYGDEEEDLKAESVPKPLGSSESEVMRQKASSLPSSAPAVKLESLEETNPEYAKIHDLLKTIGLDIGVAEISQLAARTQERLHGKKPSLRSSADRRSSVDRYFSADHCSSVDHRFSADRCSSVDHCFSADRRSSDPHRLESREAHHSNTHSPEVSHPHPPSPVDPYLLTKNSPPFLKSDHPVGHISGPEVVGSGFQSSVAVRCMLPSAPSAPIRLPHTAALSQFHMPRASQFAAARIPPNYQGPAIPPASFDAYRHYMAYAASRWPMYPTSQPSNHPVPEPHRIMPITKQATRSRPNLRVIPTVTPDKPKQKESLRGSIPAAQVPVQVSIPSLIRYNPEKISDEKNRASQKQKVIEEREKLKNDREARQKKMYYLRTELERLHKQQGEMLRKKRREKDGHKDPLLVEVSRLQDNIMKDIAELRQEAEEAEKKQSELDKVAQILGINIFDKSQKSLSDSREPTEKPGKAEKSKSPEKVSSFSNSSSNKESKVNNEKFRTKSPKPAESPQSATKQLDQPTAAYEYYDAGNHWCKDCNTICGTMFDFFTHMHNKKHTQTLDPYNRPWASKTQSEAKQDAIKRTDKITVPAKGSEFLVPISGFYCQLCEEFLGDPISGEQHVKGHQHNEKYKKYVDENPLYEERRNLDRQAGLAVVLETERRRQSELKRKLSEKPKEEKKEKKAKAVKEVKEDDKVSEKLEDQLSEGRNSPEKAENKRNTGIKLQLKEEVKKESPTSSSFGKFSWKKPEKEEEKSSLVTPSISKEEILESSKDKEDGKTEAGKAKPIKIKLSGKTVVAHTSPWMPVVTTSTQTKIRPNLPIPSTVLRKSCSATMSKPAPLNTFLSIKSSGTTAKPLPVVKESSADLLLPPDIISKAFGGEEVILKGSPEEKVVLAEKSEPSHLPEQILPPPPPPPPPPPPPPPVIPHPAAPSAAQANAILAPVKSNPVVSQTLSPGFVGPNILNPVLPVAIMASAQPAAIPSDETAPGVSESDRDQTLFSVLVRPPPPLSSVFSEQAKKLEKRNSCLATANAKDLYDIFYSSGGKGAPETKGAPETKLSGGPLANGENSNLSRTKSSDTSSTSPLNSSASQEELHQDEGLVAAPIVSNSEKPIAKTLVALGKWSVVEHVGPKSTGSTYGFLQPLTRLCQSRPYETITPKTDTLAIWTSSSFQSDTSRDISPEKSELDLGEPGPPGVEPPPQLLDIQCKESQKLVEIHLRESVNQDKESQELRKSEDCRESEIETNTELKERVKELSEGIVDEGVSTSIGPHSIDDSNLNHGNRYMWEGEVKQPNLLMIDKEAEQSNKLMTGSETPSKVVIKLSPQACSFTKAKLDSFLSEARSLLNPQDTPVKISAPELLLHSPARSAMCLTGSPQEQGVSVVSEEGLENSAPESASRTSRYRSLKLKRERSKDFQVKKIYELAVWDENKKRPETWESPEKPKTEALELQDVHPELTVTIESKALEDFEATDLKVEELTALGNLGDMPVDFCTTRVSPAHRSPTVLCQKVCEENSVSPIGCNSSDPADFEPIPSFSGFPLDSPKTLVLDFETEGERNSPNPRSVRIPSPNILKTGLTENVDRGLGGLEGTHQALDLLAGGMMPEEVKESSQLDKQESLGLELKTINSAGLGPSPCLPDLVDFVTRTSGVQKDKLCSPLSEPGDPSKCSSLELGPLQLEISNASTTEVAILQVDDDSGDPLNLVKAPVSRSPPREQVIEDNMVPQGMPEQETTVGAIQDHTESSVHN
T4 sequence (P53779 whole entry): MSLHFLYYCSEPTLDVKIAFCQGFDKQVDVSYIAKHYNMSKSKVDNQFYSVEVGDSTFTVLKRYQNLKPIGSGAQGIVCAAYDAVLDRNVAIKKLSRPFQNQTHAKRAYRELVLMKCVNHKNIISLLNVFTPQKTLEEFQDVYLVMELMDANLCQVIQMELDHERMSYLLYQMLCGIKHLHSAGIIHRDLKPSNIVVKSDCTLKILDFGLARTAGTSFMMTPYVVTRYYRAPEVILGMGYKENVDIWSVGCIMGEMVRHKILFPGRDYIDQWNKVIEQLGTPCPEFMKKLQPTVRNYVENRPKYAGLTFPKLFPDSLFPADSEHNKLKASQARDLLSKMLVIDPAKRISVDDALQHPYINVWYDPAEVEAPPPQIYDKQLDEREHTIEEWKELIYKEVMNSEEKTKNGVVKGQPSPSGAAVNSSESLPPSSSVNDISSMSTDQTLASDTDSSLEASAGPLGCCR
T1 sequence (Q13490 whole entry): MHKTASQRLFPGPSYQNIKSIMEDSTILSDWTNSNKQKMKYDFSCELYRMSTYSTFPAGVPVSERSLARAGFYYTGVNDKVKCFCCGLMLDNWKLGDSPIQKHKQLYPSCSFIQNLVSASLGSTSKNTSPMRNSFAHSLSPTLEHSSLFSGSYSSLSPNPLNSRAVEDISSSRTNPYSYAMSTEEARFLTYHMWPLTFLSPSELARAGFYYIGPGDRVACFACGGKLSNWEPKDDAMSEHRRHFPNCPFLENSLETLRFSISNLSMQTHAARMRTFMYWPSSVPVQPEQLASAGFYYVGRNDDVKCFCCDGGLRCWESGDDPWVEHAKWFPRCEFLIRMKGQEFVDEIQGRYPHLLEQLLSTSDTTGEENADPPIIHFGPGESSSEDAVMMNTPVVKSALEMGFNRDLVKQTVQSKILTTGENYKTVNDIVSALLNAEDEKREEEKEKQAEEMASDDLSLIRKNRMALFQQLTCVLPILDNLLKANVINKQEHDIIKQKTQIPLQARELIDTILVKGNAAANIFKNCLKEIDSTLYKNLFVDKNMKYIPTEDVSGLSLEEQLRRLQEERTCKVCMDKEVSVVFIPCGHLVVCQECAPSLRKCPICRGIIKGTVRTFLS

`COc1ccc2c(c1)CCCN2C(=O)CCl` [KB02] was tested, and the Liganded [1] was “YES”, the Liganded ([2]; ZNF318 Res# 1681, uniprot Q5VUA4) was “YES” and the Liganded ([3]; HERC1 Res# 56, uniprot Q15751) was “YES”. The Liganded ([3]; HERC1 Res# 1941, uniprot Q15751) was “YES”, the Liganded ([4]; MAPK10 Res# 283, uniprot P53779) was “YES” and the “100 Max” value [4] was 44.42. The 100 ave [4] was 26.11, the 500 ave [4] was 76.89 and the “500 Max” value [4] was 78.63. The Liganded ([5]; NEK9 Res# 260, uniprot Q8TD19) was “YES”.

For `O=C(CCl)Nc1cc(C(F)(F)F)cc(C(F)(F)F)c1` [KBO3], the Liganded [1] was “YES”, the “100 Max” value ([1]; uniprot Q13490) was 47.9 and the 100 ave ([1]; uniprot Q13490) was 41.4. For the same compound, the “500 Max” value ([1]; uniprot Q13490) was 92.0, the 500 ave ([1]; uniprot Q13490) was 85.9 and the “100 Max” value ([2]; uniprot Q5VUA4) was −1.63. For the same compound, the 100 ave ([2]; uniprot Q5VUA4) was −8.115, the “500 Max” value ([2]; uniprot Q5VUA4) was 55.07 and the 500 ave ([2]; uniprot Q5VUA4) was 40.555. For the same compound, the “500 Max” value ([3]; uniprot Q15751) was 68.4, the 500 ave ([3]; uniprot Q15751) was 58.0 and the “100 Max” value [4] was 17.22. For the same compound, the 100 ave [4] was 12.33, the 500 ave [4] was 40.875 and the “500 Max” value [4] was 44.06. The “100 Max” value ([5]; uniprot Q8TD19) was 9.47, the 100 ave ([5]; uniprot Q8TD19) was 9.47 and the “500 Max” value ([5]; uniprot Q8TD19) was 56.18. It also gave a 500 ave ([5]; uniprot Q8TD19) of 56.18.
